Measurements taken from US5527809A, “Substituted imidazo[4,5-b]pyridines and benzimidazoles” (Bayer Aktiengesellschaft, priority 1993, dated 1996).

Key:
angiotensin II receptor = biological target: T1, angiotensin II receptor (Bos taurus, UniProt P25104); assay: Interaction with the angiotensin II receptor in membrane fractions of the adrenal gland cortex (bovine), 3H-angiotensin II binding; settings: bovine adrenal gland cortex membranes; 3H-angiotensin II 3-5 nM; 60 min, room temperature; read-out: IC50 (50% inhibition of the specific binding of the radioligand)
T1 construct: partially purified membrane fractions of bovine AGC; from tissue; host or cells: bovine adrenal gland cortex, partially purified membrane fractions
T1 sequence (P25104 1-359): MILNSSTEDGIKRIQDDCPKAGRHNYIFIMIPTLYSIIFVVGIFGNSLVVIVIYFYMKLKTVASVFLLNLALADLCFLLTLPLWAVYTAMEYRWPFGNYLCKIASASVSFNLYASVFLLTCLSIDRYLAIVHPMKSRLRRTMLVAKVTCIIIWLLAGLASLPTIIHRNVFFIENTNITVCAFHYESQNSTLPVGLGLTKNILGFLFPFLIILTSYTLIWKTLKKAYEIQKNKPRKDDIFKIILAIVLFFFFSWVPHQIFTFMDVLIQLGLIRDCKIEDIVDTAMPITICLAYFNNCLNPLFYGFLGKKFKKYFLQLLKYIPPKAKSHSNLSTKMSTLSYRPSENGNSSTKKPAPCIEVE
From the text: Interaction of the compounds according to the invention with the angiotensin II receptor in membrane fractions of the adrenal gland cortex (bovine)
Bovine adrenal gland cortices (AGC), which have been freshly removed and carefully freed from medulla from capsule, are comminuted in sucrose solution (0.32M) with the aid of an Ultra-Turrax (Janke & Kunkel, Staufen i.B.) to give a coarse membrane homogenate and are partially purified in two centrifugation steps to give membrane fractions. The receptor binding investigations are carried out on partially purified membrane fractions of bovine AGC using radioactive angiotensin II in an assay volume of 0.25 ml, which specifically contains the partially purified membranes (50-80 μg), ^3 H-angiotensin II (3-5 nM), test buffer solution (50 mM Tris, pH 7.2), 5 mM MgCl2 and the substances to be investigated. After an incubation time of 60 min at room temperature, the unbound radioactivity of the samples is separated by means of moistened glass fibre filters (Whatman GF/C) and the bound radioactivity is measured […] in a scintillation cocktail after washing the protein with ice-cold buffer solution (50 mM Tris/HCl, pH 7.4, 5% PEG 6000). […]

[1] = system: isolated rabbit aorta (contraction induced by angiotensin II); assay: Inhibition of the contraction induced by agonists in isolated rabbit aorta rings (angiotensin II); settings: Oryctolagus cuniculus, based on the 3rd = submaximal agonist concentration, read-out: IC50 (50% inhibition of agonist-induced contraction)
Protocol: Investigation of the inhibition of the contraction induced by agonists
Rabbits of either sex are stunned by a blow to the back of the head and exsanguinated, or in some cases anaesthetized with Nembutal (about 60-80 mg/kg i.v.) and sacrificed by opening the thorax. The thoracic aorta is removed, freed from adhering connective tissue, divided into ring segments 1.5 mm wide and individually transferred under an initial loading of about 3.5 g to 10 ml organ baths containing Krebs-Henseleit nutrient solution, which is temperature-controlled at 37° C. and aerated with 95% 02 / 5% CO2, of the following composition: 119 mmol/l NaCl; 2.5 mmol/l CaCl2 ×2H2 O; 1.2 mmol/l KH2 PO4; 10 mmol/l glucose; 4.8 mmol/l KCl; 1.4 mmol/l MgSO4 ×7 H2 O and 25 mmol/l NaHCO3.
The contractions are detected isometrically by Statham UC2 cells by means of bridge amplifiers (ifd Mulheim or DSM Aalen) and digitalized and assessed by means of A/D converters (System 570, Keithley Munich). Agonist dose response curves (DRC) are carried out hourly. With each DRC, 3 or 4 individual concentrations are applied to the baths at a 4 min interval. After the end of the DRC and subsequent washing-out cycles (16 times in each case about 5 sec/min with the abovementioned nutrient solution), a 28-minute rest or incubation phase follows, during which the contractions as a rule reach the starting value again. […]

smooth muscle cells = assay: Inhibition of the proliferation of smooth muscle cells (3H-thymidine incorporation); type: cell-based; settings: rat aorta smooth muscle cells; thymidine incorporation produced by 10% FCS; read-out: IC50 (half-maximum inhibition of thymidine incorporation)
Protocol: Investigation of the inhibition of the proliferation of smooth muscle cells by the compounds according to the invention
To determine the antiproliferation action of the compounds, smooth muscle cells are used which are obtained from aortas of rats by the media explant technique [R. Ross, J. Cell. Biol. 50, 172, 1971]. The cells are inoculated in suitable culture dishes, as a rule 96-hole plates, and cultured in 5% CO2 at 37° C. for 2-3 days in medium 199 containing 7.5% FCS and 7.5% NCS, 2 mM L-glutamine and 15 mM HEPES, pH 7.4. The cells are then synchronized by withdrawal of serum for 2-3 days and then stimulated into growth with serum or other factors. Test compounds are simultaneously added. After 16-20 hours, 1 μCi of ^3 H-thymidine is added and after a further 4 hours the incorporation of this substance into the TCA-precipitatable DNA of the cells is determined. To determine the IC50 values, the active compound concentration is calculated which, on sequential dilution of the active compound, causes half-maximum inhibition of the thymidine incorporation produced by 10% FCS.

Row | IC50 (angiotensin II receptor) | IC50 [1] | SMILES | IC50 (smooth muscle cells)
1 | 210 nM | – | Cc1cc(C)c2nc(C3CC3)n(Cc3ccc(C(C(=O)O)C(C)C)cc3)c2n1 (centres unmarked) [Example 2] | –
2 | 16 nM | 61 nM | Cc1ccc(S(=O)(=O)NC(=O)Cc2ccc(Cn3c(C4CC4)nc4c(C)cc(C)nc43)cc2)cc1 [Example 9] | –
3 | – | – | O=C(N[C@H](CO)c1ccccc1)C(c1ccc(Cn2c(-c3ccccc3)nc3cccnc32)cc1)C1CCCCCC1 (some centres unmarked) [Example 14] | 120 nM
4 | – | – | Cc1ccnc2c1nc(-c1ccccc1)n2Cc1ccc(C(C(=O)NC(C(N)=O)c2ccccc2)C2CCCCCC2)cc1 (centres unmarked) [Example 23] | 43 nM
